Source: patent US11291663B2, “Methods of treating cancer with farnesyltransferase inhibitors” (Kura Oncology, Inc., priority 2017, dated 2022)

Legend:
Type in all cases: in vivo, human
relapsed/refractory PTCL = test: Tipifarnib in relapsed/refractory PTCL patients with available GEP; conditions: of 13 highly advanced relapsed/refractory PTCL patients with available GEP
From the text: (§1) CXCL12 expression alone or as a ratio of the expression to its receptor CXCR4 predicted complete response to tipifarnib treatment (p=0.08, p=0.001) (FIG. 20A). CXCL12 and the CXCL12/CXCR4 ratio also were predictive of 2 partial responses (PR) observed in 13 highly advanced relapsed/refractory PTCL patients with available GEP (p=0.009, p=0.0007) (FIG. 20B). Four objective responses and 1 tumor lysis syndrome were reported in 17 tipifarnib-treated CMML subjects with available pre-treatment BM gene expression data (FIG. 20C). CXCL12 expression (p=0.07) and the CXCL12/CXCR4 ratio (p=0.03) were predictive of those events (FIG. 20C). Only 3 CRs were reported in 58 patients with available BM gene expression data in study INT-17.

[1] = test system: elderly patients with newly diagnosed, de novo, or secondary AML; test: Ph3 study AML301, tipifarnib versus BSC
Method: (§2) Clinical studies with tipifarnib were performed in newly diagnosed elderly patients with poor risk AML (CTEP-20, Phase 2) and relapsed and refractory AML (INT-17, Phase 2). Patient selection in these studies was not based on genetic markers. Anecdotal evidence of tipifarnib single agent activity was reported. […] Median OS in the overall study was 107 days for the Tipifarnib group and 109 days for the BSC group in AML301.
AML patients with low percentage of circulating blood blasts (<1 and <10%) and high percentage of bone marrow blasts (>40%) receive clinical benefit from tipifarnib treatment in terms of progression free survival (PFS, CTEP20) or survival (AML301). […] AML301 patients N=82 (18% of study size), HR=0.58, 109 (BSC) vs 201 (tipifarnib) days, P=0.019.
FIGS. 3A-H show results from a clinical tipifarnib trial for subsets of elderly or frail AML patients (AML-301) with varying degrees of neutropenia. […] FIGS. 3B-3F show survival probabilities in AML patient subsets with WBCs>2.1×10^9 cells/L and ANC<1.2×10^9 cells/L (FIG. 3B), ANC<1.0 (FIG. 3C), ANC<0.8 (FIG. 3D), ANC<0.6 (FIG. 3E) and ANC<0.4 (FIG. 3F).

[2] = test system: relapsed and refractory AML; test: Phase 2 study INT-17 of tipifarnib
Method: as §2
FIGS. 6A and 6B show graphs illustrating results from a tipifarnib trial with relapsed or refractory AML subjects (INT-17 R/R AML). […] The bone marrow of refractory AML subjects was generally found to express low levels of CXCL12. A small subset of subjects (˜15%) presented high levels of CXCR4, bone marrow homing of tumor cells and sensitivity to tipifarnib. FIG. 6A illustrates relative counts of blood blasts in relapsed or refractory AML patients stratified based on CXCR4 expression levels. […] FIG. 6B illustrates PFS probabilities for relapsed or refractory AML subjects stratified based on CXCR4 expression levels. AML subjects overexpressing CXCR4 (N=8; median PFS=143 days) had better clinical outcomes than AML subjects with relatively lower levels of CXCR4 expression (N=49; median PFS=29 days).
CXCR4/CXCR2 ratio data were available for 57 subjects who experienced an overall survival of 87 days. […]

relapsed/refractory CMML = test: Tipifarnib-treated CMML subjects (study TIP-004); conditions: of 17 CMML subjects with available pre-treatment BM gene expression data
From the text: FIG. 10B. Progression free survival (PFS) probabilities over time (days) for relapsed/refractory CMML subjects in study TIP-004 receiving tipifarnib with relative CXCR4/CXCR2 expression ratios. CMML patients having higher CXCR4/CXCR2 expression ratios responded better to tipifarnib treatment than those having lower CXCR4/CXCR2 expression ratios.
as §1

[3] = test system: newly diagnosed elderly patients with poor risk AML; test: Phase 2 study CTEP-20 of tipifarnib
Method: as §2
FIG. 7. (A) PFS probabilities of previously untreated elderly or unfit AML subjects with a high CXCR4/CXCR2 ratio versus the rest of the patients enrolled in study CTEP-20. Outcome and expression data are available for 34 study subjects. Median survival of subjects with a bone marrow CXCR4/CXCR2 expression ratio in the upper quartile was 406 days versus 67 days in quartiles 1st-3rd, HR=0.44, p=0.09. Median overall PFS was 84 days. (B) Survival probabilities of previously untreated elderly or unfit AML subjects with a high CXCR4/CXCR2 ratio versus the rest of the patients in study CTEP-20. Median survival of subjects with a bone marrow CXCR4/CXCR2 expression ratio in the upper quartile was 728 days versus 179 days in quartiles 1st-3rd, HR=0.26, p=0.07. Median overall survival was 233 days.

relapsed/refractory AML = test: Study AMLCG 1999, AraC based chemotherapy by CXCR4/CXCR2 expression ratio; conditions: relapsed/refractory AML subjects
From the text: FIG. 11B. Progression free survival (PFS) probabilities over time (days) for relapsed/refractory AML subjects in study AMLCG 1999 receiving AraC based chemotherapy with relative CXCR4/CXCR2 expression ratios.

Compound	partial responses (PR), number of patients (relapsed/refractory PTCL)	hazard ratio, tipifarnib versus reference therapy ([1]; ANC/WBC<0.3 and marrow blasts >60%, N=110, P=0.08)	hazard ratio, tipifarnib versus BSC ([1]; ANC/WBC<0.4, WBC>2, platelets >20, N=135, P=0.046)	survival probability versus Best Supportive Care ([1]; no marrow homing subset)	HR, tipifarnib versus BSC ([1]; subset with bone marrow blasts >40% and peripheral blood blasts <10%, N=82, P=0.019)	CRs, number of patients ([2]; of 58 patients with available BM gene expression data)	HR, 5th quintile of CXCR4/CXCR2 ratio versus rest of the subjects ([2]; p=0.04)	tumor lysis syndrome, number of subjects (relapsed/refractory CMML)	Median survival (PFS panel A) ([3]; CXCR4/CXCR2 expression ratio quartiles 1st-3rd)	best responses of progression of disease (PD), number of patients ([3]; of 34 pts with available BM gene expression data)	HR for survival, upper quartile versus quartiles 1st-3rd of CXCR4/CXCR2 ratio ([3]; p=0.07)	HR for PFS, upper quartile versus quartiles 1st-3rd of CXCR4/CXCR2 ratio ([3]; p=0.09)	PFS response of patients with higher versus lower CXCR4/CXCR2 expression ratios (relapsed/refractory AML)
Cn1cncc1[C@@](N)(c1ccc(Cl)cc1)c1ccc2c(c1)c(-c1cccc(Cl)c1)cc(=O)n2C [tipifarnib]	2	0.67	0.7	no effect	0.58	3	0.52	1	67 days	13	0.26	0.44	
Nc1ccn([C@@H]2O[C@H](CO)[C@@H](O)[C@@H]2O)c(=O)n1 [AraC]													no differently
